Measured values from patent publication US11377441B2, “Covalent inhibitors of KRAS” (Araxes Pharma LLC, priority 2017, dated 2022).

Molecular target: T1, KRAS G12C 1-169, his-tagged protein, GDP-loaded (Homo sapiens, UniProt P01116, G12C)
T1 construct: KRAS G12C 1-169, his-tagged protein, GDP-loaded
Assay: Biochemical assay: covalent modification of KRAS G12C measured by mass spectrometry (RapidFire/TOF or Q-Exactive)
Format: binding
Settings: covalent binding to (modification of) KRAS G12C after a ten minute incubation period
How it was run: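 GDP-loaded KRAS G12C 1-169 (his-tagged) at 2 μM or 0.5 μM in 20 mM Hepes, 150 mM NaCl, 1 mM MgCl2, incubated with compound at 100, 30 or 10 μM at room temperature for 10 min, 30 min, 2 h or 24 h, then quenched with formic acid. Intact-protein LC-MS, deconvolved; percent modification from modified versus unmodified protein.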

Row | Compound | Binding %
1 | C=CC(=O)N1C[C@H](C)N(c2nc(N3CC(N(C)C)C3)nc3c(F)c(-c4c(C)ccc5[nH]nc(C6CC6)c45)c(Cl)cc23)C[C@@H]1C (atropisomer, axis not shown) [Compound 255, 1-((2S,5S)-4-((R)-6-chloro-7-(3-cyclopropyl-5-methyl-1H-indazol-4-yl)-2-(3-(dimethylamino)azetidin-1-yl)-8-fluoroquinazolin-4-yl)-2,5-dimethylpiperazin-1-yl)prop-2-en-1-one] | + (+ indicates binding activity greater than 0% and up to 50%)
2 | C=CC(=O)N1C[C@H](C)N(c2nc(N3CC(N(C)C)C3)nc3c(F)c(-c4c(C)ccc5c(O)n[nH]c45)c(Cl)cc23)C[C@H]1C [Compound 65, 1-((2R,5S)-4-(6-chloro-2-(3-(dimethylamino)azetidin-1-yl)-8-fluoro-7-(3-hydroxy-6-methyl-1H-indazol-7-yl)quinazolin-4-yl)-2,5-dimethylpiperazin-1-yl)prop-2-en-1-one] | + (+ indicates binding activity greater than 0% and up to 50%)
3 | C=CC(=O)N1C[C@H](C)N(c2nc(N3CC(N(C)C)C3)nc3c(F)c(-c4c(C)ccc5[nH]nc(N)c45)c(Cl)cc23)C[C@H]1C [Compound 3, 1-((2R,5S)-4-(7-(3-amino-5-methyl-1H-indazol-4-yl)-6-chloro-2-(3-(dimethylamino)azetidin-1-yl)-8-fluoroquinazolin-4-yl)-2,5-dimethylpiperazin-1-yl)prop-2-en-1-one] | +++ (+++ indicates binding activity greater than 80%)
4 | C=CC(=O)N1C[C@H](C)N(c2nc(N3CC(N(C)C)C3)nc3c(F)c(-c4c(C)ccc5c(N)n[nH]c45)c(Cl)cc23)C[C@H]1C [Compound 22, 1-((2R,5S)-4-(7-(3-amino-6-methyl-1H-indazol-7-yl)-6-chloro-2-(3-(dimethylamino)azetidin-1-yl)-8-fluoroquinazolin-4-yl)-2,5-dimethylpiperazin-1-yl)prop-2-en-1-one] | + (+ indicates binding activity greater than 0% and up to 50%)
5 | C=CC(=O)N1C[C@H](C)N(c2nc(NCCC(=O)N(C)C)nc3c(F)c(-c4c(C)ccc5onc(N)c45)c(Cl)cc23)C[C@H]1C [Compound 64, 3-(4-((2S,5R)-4-acryloyl-2,5-dimethylpiperazin-1-yl)-7-(3-amino-5-methylbenzo[d]isoxa-zol-4-yl)-6-chloro-8-fluoroquinazolin-2-ylamino)-N,N-dimethylpropanamide] | ++ (++ indicates binding activity from 50 to 80%)
6 | C=CC(=O)N1C[C@H](C)N(c2nc(OC[C@@H]3CCCN3C)nc3c(F)c(-c4c(C)ccc5[nH]nc(C6CC6)c45)c(Cl)cc23)C[C@H]1C (atropisomer, axis not shown) [Compound 228, 1-((2R,5S)-4-((R)-6-chloro-7-(3-cyclopropyl-5-methyl-1H-indazol-4-yl)-8-fluoro-2-(((S)-1-methylpyrrolidin-2-yl)methoxy)quinazolin-4-yl)-2,5-dimethylpiperazin-1-yl)prop-2-en-1-one] | +++ (+++ indicates binding activity greater than 80%)
7 | C=CC(=O)N1C[C@H](C)N(c2nc(N3CC(N(C)C)C3)nc3c(F)c(-c4cccc5ccn(C)c45)c(Cl)cc23)C[C@H]1C [Compound 138, 1-((2R,5S)-4-(6-chloro-2-(3-(dimethylamino)azetidin-1-yl)-8-fluoro-7-(1-methyl-1H-indol-7-yl)quinazolin-4-yl)-2,5-dimethylpiperazin-1-yl)prop-2-en-1-one] | +++ (+++ indicates binding activity greater than 80%)
8 | C=CC(=O)N1C[C@H](C)N(c2nc(OCCN3CCC(F)(F)C3)nc3c(F)c(-c4c(C)ccc5[nH]nc(C6CC6)c45)c(Cl)cc23)C[C@H]1C (atropisomer, axis not shown) [Compound 117, 1-((2R,5S)-4-((R)-6-chloro-7-(3-cyclopropyl-5-methyl-1H-indazol-4-yl)-2-(2-(3,3-difluoropyrrolidin-1-yl)ethoxy)-8-fluoroquinazolin-4-yl)-2,5-dimethylpiperazin-1-yl)prop-2-en-1-one] | +++ (+++ indicates binding activity greater than 80%)
9 | C=CC(=O)N1CCN(c2nc(N3CC(N(C)C)C3)nc3c(F)c(-c4c(C)ccc5[nH]nc(N)c45)c(Cl)cc23)[C@@H](C)C1 [Compound 48, 1-((3S)-4-(7-(3-amino-5-methyl-1H-indazol-4-yl)-6-chloro-2-(3-(dimethylamino)azetidin-1-yl)-8-fluoroquinazolin-4-yl)-3-methylpiperazin-1-yl)prop-2-en-1-one] | +++ (+++ indicates binding activity greater than 80%)
10 | C=CC(=O)N1C[C@H](C)N(c2nc(OC[C@@H]3CCCN3C(C)C)nc3c(F)c(-c4c(C)ccc5[nH]nc(C)c45)c(Cl)cc23)C[C@H]1C [Compound 247, 1-((2R,5S)-4-(6-chloro-7-(3,5-dimethyl-1H-indazol-4-yl)-8-fluoro-2-(((S)-1-isopropylpyrrolidin-2-yl)methoxy)quinazolin-4-yl)-2,5-dimethylpiperazin-1-yl)prop-2-en-1-one] | ++ (++ indicates binding activity from 50 to 80%)
11 | C=CC(=O)N1C[C@@H](C)N(c2nc(N3CC(N(C)C)C3)nc3c(F)c(-c4c(C)ccc5[nH]nc(C6CC6)c45)c(Cl)cc23)C[C@H]1C (atropisomer, axis not shown) [Compound 250, 1-((2R,5R)-4-((S)-6-chloro-7-(3-cyclopropyl-5-methyl-1H-indazol-4-yl)-2-(3-(dimethylamino)azetidin-1-yl)-8-fluoroquinazolin-4-yl)-2,5-dimethylpiperazin-1-yl)prop-2-en-1-one] | + (+ indicates binding activity greater than 0% and up to 50%)
12 | C=CC(=O)N1C[C@H](C)N(c2nc(N3CC(N(C)C)C3)nc3c(F)c(-c4ccc(F)c5cnn(C6CC6)c45)c(Cl)cc23)C[C@H]1C (atropisomer, axis not shown) [Compound 218, 1-((2R,5S)-4-((R)-6-chloro-7-(1-cyclopropyl-4-fluoro-1H-indazol-7-yl)-2-(3-(dimethylamino)azetidin-1-yl)-8-fluoroquinazolin-4-yl)-2,5-dimethylpiperazin-1-yl)prop-2-en-1-one] | +++ (+++ indicates binding activity greater than 80%)
13 | C=CC(=O)N1CCN(c2nc(N3CC(N(C)C)C3)nc3c(F)c(-c4c(C)ccc5cnn(C)c45)c(Cl)cc23)CC1CC#N (centres unmarked) [Compound 269, 2-(1-acryloyl-4-(6-chloro-7-(1,6-dimethyl-1H-indazol-7-yl)-2-(3-(dimethylamino)azetidin-1-yl)-8-fluoroquinazolin-4-yl)piperazin-2-yl)acetonitrile] | +++ (+++ indicates binding activity greater than 80%)
14 | C=CC(=O)N1C[C@H](C)N(c2nc(N3CC(NC)C3)nc3c(F)c(-c4c(C)ccc5[nH]nc(C)c45)c(Cl)cc23)C[C@H]1C (atropisomer, axis not shown) [Compound 219, 1-((2R,5S)-4-((S)-6-chloro-7-(3,5-dimethyl-1H-indazol-4-yl)-8-fluoro-2-(3-(methylamino)azetidin-1-yl)quinazolin-4-yl)-2,5-dimethylpiperazin-1-yl)prop-2-en-1-one] | + (+ indicates binding activity greater than 0% and up to 50%)
15 | C=CC(=O)N1C[C@H](C)N(c2nc(N3CC(N(C)C)C3)nc3c(F)c(-c4c(C)ccc5cnn(C)c45)c(Cl)cc23)C[C@H]1C [Compound 120, 1-((2R,5S)-4-(6-chloro-7-(1,6-dimethyl-1H-indazol-7-yl)-2-(3-(dimethylamino)azetidin-1-yl)-8-fluoroquinazolin-4-yl)-2,5-dimethylpiperazin-1-yl)prop-2-en-1-one] | ++ (++ indicates binding activity from 50 to 80%)
16 | C=CC(=O)N1C[C@H](C)N(c2nc(OC[C@H]3CN(C)CCO3)nc3c(F)c(-c4c(C)ccc5cnn(C)c45)c(Cl)cc23)C[C@H]1C [Compound 186, 1-((2R,5S)-4-(6-chloro-7-(1,6-dimethyl-1H-indazol-7-yl)-8-fluoro-2-(((R)-4-methylmorpholin-2-yl)methoxy)quinazolin-4-yl)-2,5-dimethylpiperazin-1-yl)prop-2-en-1-one] | +++ (+++ indicates binding activity greater than 80%)
17 | C=CC(=O)N1C[C@H](C)N(c2nc(N3CC(N(C)C)C3)nc3c(F)c(-c4c(C)ccc5[nH]nc(C6CC6)c45)c(Cl)cc23)C[C@H]1C (atropisomer, axis not shown) [Compound 76, 1-((2R,5S)-4-((R)-6-chloro-7-(3-cyclopropyl-5-methyl-1H-indazol-4-yl)-2-(3-(dimethylamino)azetidin-1-yl)-8-fluoroquinazolin-4-yl)-2,5-dimethylpiperazin-1-yl)prop-2-en-1-one] | +++ (+++ indicates binding activity greater than 80%)
18 | 1-((2R,5S)-4-(6- chloro-7-(1,6- dimethyl-1H- benzo[d][1,2,3]triazol- 7-yl)-2-(3- (dimethylamino)azetidin- 1-yl)-8- flurooquinazolin-4- yl)-2,5- dimethylpiperazin-1- yl)prop-2-en-1-one [Compound 137] | + (+ indicates binding activity greater than 0% and up to 50%)
19 | C=CC(=O)N1C[C@H](C)N(c2nc(N3CC(NC)C3)nc3c(F)c(-c4c(C)ccc5[nH]nc(C6CC6)c45)c(Cl)cc23)C[C@H]1C [Compound 209, 1-((2R,5S)-4-((R)-6-chloro-7-(3-cyclopropyl-5-methyl-1H-indazol-4-yl)-8-fluoro-2-(3-(methylamino)azetidin-1-yl)quinazolin-4-yl)-2,5-dimethylpiperazin-1-yl)prop-2-en-1-one] | +++ (+++ indicates binding activity greater than 80%)
20 | C=CC(=O)N1C[C@H](C)N(c2nc(OCCN3CCC(F)(F)C3)nc3c(F)c(-c4c(C)ccc5cnn(C)c45)c(Cl)cc23)C[C@H]1C (atropisomer, axis not shown) [Compound 135, 1-((2R,5S)-4-((S)-6-chloro-2-(2-(3,3-difluoropyrrolidin-1-yl)ethoxy)-7-(1,6-dimethyl-1H-indazol-7-yl)-8-fluoroquinazolin-4-yl)-2,5-dimethylpiperazin-1-yl)prop-2-en-1-one] | + (+ indicates binding activity greater than 0% and up to 50%)
